{"source": "patent US10538567B2", "about": "“Compounds as peptidic trigonal GLP1/glucagon/GIP receptor agonists” (priority 2016, dated 2020)", "note": "Numbered stars: 1 amine (or outer) side, 2 acyl side, 3 side chain; on linkers, the order of the positions; unused ones are H or OH. Square brackets hold non-standard residues; d marks the D form. Side chains are listed from the residue outwards. Peptide text beside a SMILES is read from it. * marks the point of attachment. γGlu = O=C(O)[C@H](CCC(=O)[*:2])N[*:1]; Stearoyl = CCCCCCCCCCCCCCCCCC(=O)*; Palmitoyl = CCCCCCCCCCCCCCCC(=O)*; AEEA = NCCOCCOCC(=O)O; Aib = CC(C)(N)C(=O)O"}
{"system": "not listed separately", "assay": "Thioflavin T (ThT) assay for physical stability (fibrillation)", "format": "physicochemical", "settings": "3 mg/ml, 100 mM acetate pH 4.5 with m-cresol, 37° C. shaking", "from_the_text": "Low physical stability of a peptide solution may lead to amyloid fibril formation, which is observed as well-ordered, thread-like macromolecular structures in the sample, which eventually may lead to gel formation. Thioflavin T (ThT) is widely used to visualize and quantify the presence of misfolded protein aggregates. [Biancalana et al. (2010) Biochimica et Biophysica Acta. 1804 (7): 1405-1412]. […] Enzymol. 309, 274-284]. The time course for fibril formation often follows the characteristic shape of a sigmoidal curve and can be separated into three regions: a lag phase, a fast growth phase, and a plateau phase.\nThe typical fibril formation process starts with the lag phase in which the amount of partially folded peptide turned into fibrils is not significant enough to be detected. The lag-time corresponds to the time the critical mass of the nucleus is built. Afterwards, a drastic elongation phase follows and fibril concentration increases rapidly.\nInvestigations were carried out to determine fibrillation tendencies under stress conditions by shaking at 37° C. within Fluoroskan Ascent FL.\nFor the tests in Fluoroskan Ascent FL, 200 μL sample were placed into a 96 well mictrotiter plate PS, flat bottom, Greiner Fluotrac No. 655076. Plates were sealed with Scotch Tape (Quiagen). Samples were stressed by continuous cycles of 10 s shaking at 960 rpm and 50 s rest period at 37° C. The kinetic was monitored by measuring fluorescence intensity every 20 minutes.\nPeptides were diluted in a buffer system to a final concentration of 3 mg/ml. 20 μL of a 10.1 mM ThT solution in H2O were added to 2 mL of peptide solution to receive a final concentration of 100 μM ThT. For each sample eight replicates were tested.\nTht buffer system A) 100 mM Acetate pH 4.5 including m-cresol (100 mM Natriumacetat trihydrat, pH adjustment using 2N CH3COOH, 2.7 mg/mL m-cresol) Tht buffer system B) 100 mM citrate buffer pH 6.0\nLag time in hours in Thioflavin T (ThT) assay of peptide samples was determined in ThT buffer system A as described in Methods.", "units": {"Lag time before increase": "h"}}
{"compound": "CCCCCCCCCCCCCCCC(=O)N[C@@H](CCC(=O)NCCCC[C@H](NC(=O)[C@H](CC(C)C)NC(=O)[C@H](CCCCN)NC(=O)[C@H](CO)NC(=O)[C@H](CC(C)C)NC(=O)[C@H](CC(=O)O)NC(=O)[C@H](CO)NC(=O)[C@@H](NC(=O)[C@H](Cc1ccccc1)NC(=O)[C@@H](NC(=O)CNC(=O)[C@H](Cc1c[nH]cn1)NC(=O)C(C)(C)NC(=O)[C@@H](N)Cc1c[nH]cn1)[C@@H](C)O)[C@@H](C)O)C(=O)N[C@@H](CCC(=O)O)C(=O)N[C@@H](CCC(=O)O)C(=O)N[C@@H](CCC(N)=O)C(=O)N[C@@H](CCCNC(=N)N)C(=O)N[C@@H](CCC(N)=O)C(=O)NC(C)(C)C(=O)N[C@@H](CCC(=O)O)C(=O)N[C@@H](Cc1ccccc1)C(=O)N[C@H](C(=O)N[C@@H](CCC(=O)O)C(=O)N[C@@H](Cc1c[nH]c2ccccc12)C(=O)N[C@@H](CC(C)C)C(=O)N[C@@H](CCCCN)C(=O)N[C@@H](C)C(=O)NCC(=O)NCC(=O)N1CCC[C@H]1C(=O)N1CCC[C@H]1C(=O)N[C@@H](CO)C(=O)NC(C)(C)C(=O)N[C@@H](CCCCN)C(=O)N1CCC[C@H]1C(=O)N1CCC[C@H]1C(=O)N1CCC[C@H]1C(=O)N[C@@H](CCCCN)C(N)=O)[C@@H](C)CC)C(=O)O", "note": "[SEQ ID NO: 18, H-Aib-H-G-T-F-T-S-D-L-S-K-L-K[gGlu-Palm]-E-E-Q-R-Q-Aib-E-F-I-E-W-L-K-A-G-G-P-P-S-Aib-K-P-P-P-K-NH2]", "Lag time before increase": ">45"}
{"compound": "CCCCCCCCCCCCCCCCCC(=O)N[C@@H](CCC(=O)NCCCC[C@H](NC(=O)[C@H](CC(C)C)NC(=O)[C@H](CCCCN)NC(=O)[C@H](CO)NC(=O)[C@H](CC(C)C)NC(=O)[C@H](CC(=O)O)NC(=O)[C@H](CO)NC(=O)[C@@H](NC(=O)[C@H](Cc1ccccc1)NC(=O)[C@@H](NC(=O)CNC(=O)[C@H](Cc1c[nH]cn1)NC(=O)C(C)(C)NC(=O)[C@@H](N)Cc1c[nH]cn1)[C@@H](C)O)[C@@H](C)O)C(=O)N[C@@H](CCC(=O)O)C(=O)N[C@@H](CCC(=O)O)C(=O)N[C@@H](CCC(N)=O)C(=O)N[C@@H](CCCNC(=N)N)C(=O)N[C@@H](CCC(N)=O)C(=O)NC(C)(C)C(=O)N[C@@H](CCC(=O)O)C(=O)N[C@@H](Cc1ccccc1)C(=O)N[C@H](C(=O)N[C@@H](CCC(=O)O)C(=O)N[C@@H](Cc1c[nH]c2ccccc12)C(=O)N[C@@H](CC(C)C)C(=O)N[C@@H](CCCCN)C(=O)N[C@@H](C)C(=O)NCC(=O)NCC(=O)N1CCC[C@H]1C(=O)N1CCC[C@H]1C(=O)N[C@@H](CO)C(=O)NC(C)(C)C(=O)N[C@@H](CCCCN)C(=O)N1CCC[C@H]1C(=O)N1CCC[C@H]1C(=O)N1CCC[C@H]1C(=O)N[C@@H](CCCCN)C(N)=O)[C@@H](C)CC)C(=O)O", "note": "[SEQ ID NO: 19, H-Aib-H-G-T-F-T-S-D-L-S-K-L-K[gGlu-Stea]-E-E-Q-R-Q-Aib-E-F-I-E-W-L-K-A-G-G-P-P-S-Aib-K-P-P-P-K-NH2] (H-H[Aib]HGTFTSDLSKLK([γGlu-Stearoyl])EEQRQ[Aib]EFIEWLKAGGPPS[Aib]KPPPK-NH2)", "Lag time before increase": ">45"}
{"system": "female diabetic db/db mice", "assay": "Acute effects after s.c. treatment on blood glucose in non-fasting female diabetic db/db mice", "format": "in vivo", "settings": "single 30 μg/kg s.c.", "procedure": "Female healthy, lean BKS.Cg-(lean)/OlaHsd and diabetes-prone, obese BKS.Cg-+Lepr^db/+Lepr^db/OlaHsd mice were ordered group housed from Envigo RMS Inc., shipped group housed and remained group housed in shoebox caging with wood chip bedding until day 15 of the predose phase. At the study start mice were approximately 12 weeks old.\nMice were housed under vivarium conditions including a 12 h light/dark cycle (light phase 04:00 AM-4:00 PM), room temperatures between 23-26° C. and a relative humidity between 30-70%. All animals had free access to water and Purina Fomulab Diet 5008.\nOn predose day 9 blood glucose and body mass (approximately between 08:00-10:00 AM) as well as HbA1c measurements were performed. On day 15 of the predose phase animals were assigned to treatment groups (n=8) and to new cages to match mean HbA1c and body masses between all db/db groups. An age-matched lean group was included in the study as a healthy, lean reference.\nPrior to day 1 of the dosing phase, the test article was diluted with Phosphate Buffered Saline (PBS, Gibco, without CaCl2 and MgCl2) to a concentration of 1 mg/mL and aliquots of this stock solution were stored at approximately ≤−60° C. On day 1 of the dosing phase the stock aliquot was thawed and the injected test article solution was prepared fresh by diluting it with PBS to achieve the desired concentration.\nOn Day 1 of the dosing phase db/db mice were either treated once with a s.c. injection of PBS-vehicle or 30 μg/kg test article. The lean reference group was treated once with a s.c. injection of PBS-vehicle. The dosing was initiated and completed between 08:00 and 10:00 AM. The applied volume was 5 ml/kg and the dose was adjusted to the most recent body mass recording of each individual.\nAnimals had unlimited access to water and feed during the experiment. On day 1 of the dosing phase approximately 5 μL of blood were collected via tail clips at minute −30 and 0 prior to any other inlife activities. At minute 0 mice received a s.c. dose of either PBS-vehicle or 30 μg/kg test article. Further blood samples were harvested at hour 0.25, 0.5, 1, 1.5, 2, 3, 4, 6, 8, and 24 post-dose. Glucose measurements were performed in whole blood using AlphaTRAK glucometers. If the glucose concentrations of two measurements differed by more than 20 mg/dL a third value was recorded. The Area Under the Curve (AUC) for blood glucose was calculated via the trapezoid method and for the duration of the 24 post-dose hours.\nIn the Figures data are depicted as means±SEM. […] A One Way Analysis of Variance and multiple comparisons (Dunnett's Method) were performed comparing the group of diabetic, obese db/db vehicle mice (n=8) with each diabetic, obese db/db test article treated mice (n=8). […] Non-diabetic, lean-vehicle group data are depicted in the Figures serving as a reference dataset for the non-obese, non-diabetic state."}
{"compound": "H-Aib-H-G-T-F-T-S-D-L-S-K-L-K[gGlu-gGlu-AEEA-Palm]-E-E-Q-R-Q-Aib-E-F-I-E-W-L-K-A-G-G-P-P-S-Aib-K-P-P-P-K-NH2 (H-H[Aib]HGTFTSDLSKLK([γGlu-γGlu-AEEA-Palmitoyl])EEQRQ[Aib]EFIEWLKAGGPPS[Aib]KPPPK-NH2) [SEQ ID NO: 26]", "mean blood glucose concentration 24 hours post-dose relative to baseline": "at or close to baseline"}
